Assay results from US7893074B2, “2, 4-pyrimidinediamines useful in the treatment of neoplastic diseases, inflammatory and immune system disorders” (Novartis AG, priority 2003, dated 2011).
Like-named read-outs stand apart in the source and are kept apart here.

Columns and labels:
[1] = molecular target: Focal Adhesion Kinase (FAK) (Homo sapiens, UniProt Q05397); assay: FAK assay system (Focal Adhesion Kinase inhibition); assay type: biochemical; details: read-out: FAK IC50
[2] = system: Mouse mammary carcinoma 4T1 cells; assay: Anchorage-independent tumor cell growth assay; assay type: cell-based
Method: Cells are cultured for 2 h and inhibitors are added at various concentrations in a final concentration of 0.1% DMSO. After 48 h, cell growth is assayed with the cell counting kit-8 (Wako Pure Chemical), which uses a water soluble tetrazolium salt WST8. Twenty μL of the reagent is added into each well and cells are further cultured for 2 h. The optical density is measured at 450 nm.

FAK = FAK (Mus musculus, UniProt P34152); assay: Phos IC50 (phosphorylation); assay type: cell-based
Sequence of FAK (P34152 2-1052): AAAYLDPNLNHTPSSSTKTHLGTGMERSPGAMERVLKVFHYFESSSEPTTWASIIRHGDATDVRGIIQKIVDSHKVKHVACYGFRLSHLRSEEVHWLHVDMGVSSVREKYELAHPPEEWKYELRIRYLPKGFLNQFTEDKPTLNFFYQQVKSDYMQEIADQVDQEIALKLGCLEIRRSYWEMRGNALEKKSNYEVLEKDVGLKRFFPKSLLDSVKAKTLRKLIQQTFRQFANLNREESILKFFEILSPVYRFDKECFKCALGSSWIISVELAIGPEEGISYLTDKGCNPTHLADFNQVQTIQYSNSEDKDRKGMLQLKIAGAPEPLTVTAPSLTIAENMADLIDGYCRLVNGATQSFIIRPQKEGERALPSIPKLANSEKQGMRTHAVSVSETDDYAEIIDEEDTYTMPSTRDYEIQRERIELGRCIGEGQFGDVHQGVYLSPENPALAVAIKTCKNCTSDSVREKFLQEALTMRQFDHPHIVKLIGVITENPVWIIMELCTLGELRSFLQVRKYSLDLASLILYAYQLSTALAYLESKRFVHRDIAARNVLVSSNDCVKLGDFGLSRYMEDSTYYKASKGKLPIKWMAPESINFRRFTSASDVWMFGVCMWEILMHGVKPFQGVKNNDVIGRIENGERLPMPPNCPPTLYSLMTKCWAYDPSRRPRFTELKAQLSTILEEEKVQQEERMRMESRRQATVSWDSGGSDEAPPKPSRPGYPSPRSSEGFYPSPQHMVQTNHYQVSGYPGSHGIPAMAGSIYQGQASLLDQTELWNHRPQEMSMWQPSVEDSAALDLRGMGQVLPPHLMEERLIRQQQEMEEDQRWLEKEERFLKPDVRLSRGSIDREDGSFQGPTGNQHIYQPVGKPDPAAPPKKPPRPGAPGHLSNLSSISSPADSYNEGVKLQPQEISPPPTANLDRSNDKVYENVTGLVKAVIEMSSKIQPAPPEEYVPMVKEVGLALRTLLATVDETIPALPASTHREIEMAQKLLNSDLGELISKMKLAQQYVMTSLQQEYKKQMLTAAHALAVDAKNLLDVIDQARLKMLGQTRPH

Sequence of Focal Adhesion Kinase (FAK) (Q05397 384-706): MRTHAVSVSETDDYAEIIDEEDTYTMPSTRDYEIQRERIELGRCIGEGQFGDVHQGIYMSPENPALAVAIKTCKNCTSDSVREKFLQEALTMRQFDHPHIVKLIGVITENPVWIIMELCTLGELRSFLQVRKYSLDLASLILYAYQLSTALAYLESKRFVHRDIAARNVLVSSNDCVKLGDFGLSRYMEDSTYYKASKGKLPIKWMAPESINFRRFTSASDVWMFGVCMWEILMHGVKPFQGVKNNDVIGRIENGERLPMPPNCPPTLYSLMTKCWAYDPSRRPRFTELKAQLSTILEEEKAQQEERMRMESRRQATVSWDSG

SMILES	IC50 [1]	IC50 ([2]; Mus musculus, 4T1)	IC50 (FAK)	IC50 [2]
CNS(=O)(=O)c1ccccc1Nc1nc(Nc2cc(OCCN3CCOCC3)ccc2OC)ncc1Cl [Example 20-21]	26 nM	680 nM	3000 nM	
CNS(=O)(=O)c1ccccc1Nc1nc(Nc2cc(OCCN3CCN(C)CC3)ccc2OC)ncc1Cl [Example 20-22]	8 nM	190 nM	> 10000 nM	
CNS(=O)(=O)c1ccccc1Nc1nc(Nc2cc(F)ccc2OC)ncc1Cl [Example 20-23]	30 nM	3000 nM	490 nM	
CNS(=O)(=O)c1ccccc1Nc1nc(Nc2ccc(F)cc2OC)ncc1Cl [Example 20-24]	19 nM	2000 nM	480 nM	
CNS(=O)(=O)c1ccccc1Nc1nc(Nc2ccc(OCC3CCN(C)CC3)cc2OC)ncc1Cl [Example 20-25]	6.2 nM	60 nM	210 nM	
CNS(=O)(=O)c1ccccc1Nc1nc(Nc2cc(OCC3CCN(C)CC3)ccc2OC)ncc1Cl [Example 20-26]	5.3 nM	270 nM	760 nM	
CNS(=O)(=O)c1ccccc1Nc1nc(Nc2cc(N3CCN(C(C)=O)CC3)ccc2OC)ncc1Cl [Example 20-34]	13 nM	120 nM	1000 nM	
CCC(C)NS(=O)(=O)c1ccccc1Nc1nc(Nc2ccc(N3CCN(C)CC3)cc2OC)ncc1Cl (stereo not drawn) [Example 21-1]	1 nM		70 nM	190 nM
CCC(C)NS(=O)(=O)c1ccccc1Nc1nc(Nc2ccc(F)cc2OC)ncc1Cl (stereo not drawn) [Example 21-2]	8.5 nM	> 10000 nM	330 nM	
CCC(C)NS(=O)(=O)c1ccccc1Nc1nc(Nc2ccc(OC3CCN(C)CC3)cc2OC)ncc1Cl (stereo not drawn) [Example 21-3]	1.7 nM	300 nM	300 nM	
CCC(C)NS(=O)(=O)c1ccccc1Nc1nc(Nc2ccc(OCCN3CCOCC3)cc2OC)ncc1Cl (stereo not drawn) [Example 21-4]	1.8 nM	300 nM	50 nM	
COc1ccc(F)cc1Nc1ncc(Cl)c(Nc2ccccc2S(=O)(=O)NCC(C)C)n1 [Example 22-1]	43 nM	> 10000 nM	> 10000 nM	
COc1cc(F)ccc1Nc1ncc(Cl)c(Nc2ccccc2S(=O)(=O)NCC(C)C)n1 [Example 22-2]	26 nM	3000 nM	1000 nM	
CCC(CC)NS(=O)(=O)c1ccccc1Nc1nc(Nc2ccc(OCC3CCCN(C)C3)cc2OC)ncc1Cl (stereo not drawn) [Example 23-5]	1.9 nM	590 nM	> 10000 nM	
CCC(CC)NS(=O)(=O)c1ccccc1Nc1nc(Nc2ccc(N3CCOCC3)cc2OC)ncc1Cl [Example 23-6]	16 nM	570 nM	1000 nM	
CCC(CC)NS(=O)(=O)c1ccccc1Nc1nc(Nc2ccc(OCCN3CCOCC3)cc2OC)ncc1Cl [Example 23-8]	6.7 nM	490 nM	300 nM	
CCC(CC)NS(=O)(=O)c1ccccc1Nc1nc(Nc2ccc(OCCN3CCN(C)CC3)cc2OC)ncc1Cl [Example 23-9]	2.1 nM	280 nM	200 nM	
COc1cc(N2CCC(NC(C)=O)C2)ccc1Nc1ncc(Cl)c(Nc2ccccc2S(=O)(=O)NC2CCC2)n1 (stereo not drawn) [Example 24-3]	1 nM	1080 nM	300 nM	
CCCS(=O)(=O)c1ccccc1Nc1nc(Nc2ccc(N3CC(C)N(C(C)=O)C(C)C3)cc2OC)ncc1Cl (stereo not drawn) [Example 26-7]	11 nM	950 nM	500 nM	
CCCS(=O)(=O)c1ccccc1Nc1nc(Nc2ccc(N3CCN(C(=O)CC)CC3)cc2OC)ncc1Cl [Example 26-8]	2.9 nM	180 nM	10 nM	
CCCS(=O)(=O)c1ccccc1Nc1nc(Nc2ccc(N3CCN(C(=O)C(C)C)CC3)cc2OC)ncc1Cl [Example 26-9]	2.3 nM	220 nM	40 nM	
CCCS(=O)(=O)c1ccccc1Nc1nc(Nc2ccc(N3CCC[C@H](C(N)=O)C3)cc2OC)ncc1Cl [Example 26-12]	3.7 nM	190 nM	200 nM	
